Data: US11643782B2, “Method for controlling growth of microorganisms and/or biofilms in an industrial process” (Kemira Oyj, priority 2017, dated 2023)

Legend:
Type in all cases: cell-based
[1] = tested on: Meiothermus silvanus biofilms; assay: Prevention of biofilm formation (96-microwell peg-lid plates, Crystal Violet staining); settings: for Biofilm quantity, Abs. at 595 nm / Biofilm reduction: 48 h contact time
Text: (§1) Pure cultures of Meiothermus silvanus, a microbe species commonly found in paper machine biofilms (Ekman J, Journal of Industrial Microbiology & Biotechnology 34:203-211) and Pseudoxanthomonas taiwanensis, another species commonly found in paper machine environments (Desjardins, E & Beaulieu, C, Journal of Industrial Microbiology & Biotechnology 30:141-145) were used to study the efficacy of various chemicals to prevent biofilm formation.
(§2) Biofilm tests were done in either synthetic commercial R2-broth (Lab M Ltd, UK) or fibre-containing synthetic paper machine water, SPW (prepared according to Peltola, et al., J. Ind. Microbiol. Biotechnol. 2011, 38: 1719-1727) using 96-microwell plate wells with peg lids (Thermo Fischer Scientific Inc., USA). Plates were incubated at 45° C. with a rotary shaking (150 rpm) providing high flow in each well.
(§3) For experiments of preventing biofilm formation wells of 96-microwell plates with peg-lids were filled with R2-broth or SPW, inoculated with the pure bacterial cultures and treated with different amounts of chemical compounds to be tested. Peg-lid was put on. After 24 hours the wells were emptied and a fresh solution of pure culture containing SPW or R2 broth with different amounts of test chemicals were added to the wells and the original peg-lid was put back in place. After an additional 24 hours, i.e. 48 hours after starting the test, the wells were emptied, rinsed and the peg lid and wells were left to dry.
(§4) The amount of biofilm formed on the microwells and peg surfaces was quantified with a staining solution by adding 200 μl of 1% Crystal Violet (Merck Millipore KGaA, Germany) in methanol to each well and placing the peg-lid back on. After 3 minutes the wells were emptied and the wells and pegs were rinsed 3 times with tap water. The attached Crystal Violet was dissolved into ethanol and the absorbance at 595 nm was measured. The values shown in the following tables are average absorbance from 8 replicate wells and pegs.
(§5) All absorbance values in Examples 1-8 are given actual measured values. In calculation for biofilm reduction percentages it was taken in account that the SPW alone for 2 days without any bacterial inoculum gave a background value of 0.14.

[2] = tested on: Pseudoxanthomonas taiwanensis biofilms; assay: Removal of existing (preformed) biofilm (96-microwell peg-lid plates, Crystal Violet staining); settings: for Biofilm quantity, Abs. at 595 nm / Biofilm reduction: SPW, 45° C., 150 rpm, 24 h pre-growth and 24 h contact time; for Removal of already formed biofilms (in words): synthetic paper machine water, high temperature, fibres present, high flow
Text: as §1, §2
(§6) For experiments of removing already existing (preformed) biofilm wells of 96-microwell plates with peg-lids were filled with SPW, inoculated with the pure bacterial cultures. Biofilm was grown for 24 hours without addition of any chemical compound to be tested. In some experiments after 24 hours the procedure was repeated by emptying the wells and by addition of a fresh solution of SPW inoculated with pure bacterial culture, again without any test chemical compound. The original peg-lid was put back in place and biofilm was allowed to grow for additional 24 h, i.e. in total 48 h.
(§7) After 24 or 48 hours after starting the test, the wells were emptied and a fresh solution of SPW, inoculated with the pure bacterial cultures and with different amounts of chemical compounds to be tested were added and the original peg-lid was placed back in place. After an additional 2 or 24 hours the wells were emptied, rinsed and the peg lid and wells were left to dry.
as §4, §5

[3] = tested on: Meiothermus silvanus biofilms; assay: as above; settings: for Biofilm quantity, Abs. at 595 nm / Biofilm reduction: SPW, 45° C., 150 rpm, 24 h pre-growth and 24 h contact time
Text: as §1, §2, §6, §7, §4, §5

[4] = tested on: Pseudoxanthomonas taiwanensis biofilms; assay: Prevention of biofilm formation (96-microwell peg-lid plates, Crystal Violet staining); settings: for Biofilm quantity, Abs. at 595 nm / Biofilm reduction / Biofilm quantity, Abs at 595 nm: 48 h contact time
Text: as §1, §2, §3, §4, §5

[5] = Table 5, dosage 0.06 mg/l active compound, SPW, 45° C., 150 rpm
[6] = Table 5, dosage 0.2 mg/l active compound, SPW, 45° C., 150 rpm
[7] = Table 9, dosage 0.2 mg/l active compound
[8] = Table 9, dosage 0.4 mg/l active compound
[9] = Table 7, dosage 0.2 mg/l active compound
[10] = Table 7, dosage 0.6 mg/l active compound
[11] = Table 6, dosage 0.06 mg/l active compound, SPW, 45° C., 150 rpm
[12] = Table 6, dosage 0.2 mg/l active compound, SPW, 45° C., 150 rpm
[13] = dosage 0.2 mg/l active compound
[14] = dosage 0.6 mg/l active compound
[15] = active compound, synthetic paper machine water, high temperature, fibres present, high flow
[16] = dosage 0.2 mg/l active ingredient, SPW, 45° C., 150 rpm
[17] = dosage 0.6 mg/l active ingredient, SPW, 45° C., 150 rpm
[18] = dosage 1 mg/l active ingredient, SPW, 45° C., 150 rpm

Molecule: N#C/C=C/S(=O)(=O)c1ccccc1 [Compound C, (2E)-3-phenylsulphonyl-2-propenenitrile]
- Biofilm quantity, Abs. at 595 nm [1, 5]: 0.64
- Biofilm reduction [1, 5]: 29.7%
- Biofilm quantity, Abs. at 595 nm [1, 6]: 0.15
- Biofilm reduction [1, 6]: 98.2%
- Biofilm quantity, Abs. at 595 nm [2, 7]: 0.15
- Biofilm reduction [2, 7]: 98.5%
- Biofilm quantity, Abs. at 595 nm [2, 8]: 0.15
- Biofilm reduction [2, 8]: 99.0%
- Removal of already formed biofilms (in words) [2]: remove already formed biofilms

Molecule: Cc1cc(C)c(S(=O)(=O)/C=C/C#N)c(C)c1 [Compound D, (2E)-3-[(2,4,6-trimethylphenyl)sulphonyl]-2-propenenitrile]
- Biofilm quantity, Abs. at 595 nm [2, 9]: 2.07
- Biofilm reduction [2, 9]: 8.4%
- Biofilm quantity, Abs. at 595 nm [2, 10]: 0.18
- Biofilm reduction [2, 10]: 97.9%
- Removal of already formed biofilms (in words) [2]: remove already formed biofilms

Molecule: N#C/C=C/S(=O)(=O)c1ccc(C(F)(F)F)cc1 [Compound E, (2E)-3-[(4-trifluormethylphenyl)sulphonyl]-2-propenenitrile]
- Biofilm quantity, Abs. at 595 nm [1, 11]: 1.43
- Biofilm reduction [1, 11]: 38.8%
- Biofilm quantity, Abs. at 595 nm [1, 12]: 0.14
- Biofilm reduction [1, 12]: 99.6%

Molecule: COc1ccc(S(=O)(=O)/C=C/C#N)cc1 [Compound F, (2E)-3-[(4-methoxyphenyl)sulphonyl]-2-propenenitrile]
- Biofilm quantity, Abs. at 595 nm [3, 13]: 1.21
- Biofilm reduction [3, 13]: 6.4%
- Biofilm quantity, Abs. at 595 nm [3, 14]: 0.86
- Biofilm reduction [3, 14]: 37.3%
- Removal of already formed biofilms (in words) ([3]; synthetic paper machine water, high temperature, fibres present, high flow): remove already formed biofilms

Molecule: N#CC(Br)(Br)C(N)=O [DBNPA, 2,2-dibromo-3-nitrilopropionamide]
- Dosage required to reach acceptable or noticable biofilm reduction efficacy [1, 15]: 1 mg/I
- Biofilm quantity, Abs. at 595 nm [1, 16]: 0.57
- Biofilm reduction [1, 16]: 16.9%
- Biofilm quantity, Abs. at 595 nm [1, 17]: 0.35
- Biofilm reduction [1, 17]: 60.7%
- Biofilm quantity, Abs. at 595 nm [1, 18]: 0.15
- Biofilm reduction [1, 18]: 98.8%
- Dosage required to reach acceptable or noticable biofilm reduction efficacy [4, 15]: 1 mg/I
- Biofilm quantity, Abs. at 595 nm [4, 16]: 1.46
- Biofilm reduction [4, 16]: 12.6%
- Biofilm quantity, Abs. at 595 nm [4, 17]: 1.23
- Biofilm reduction [4, 17]: 27.8%
- Biofilm quantity, Abs. at 595 nm [4, 18]: 0.14
- Biofilm reduction [4, 18]: 99.9%

Molecule: Gramicidin
- Biofilm quantity, Abs. at 595 nm ([1]; dosage 0.2 mg/l, R2-broth): 1.40
- Biofilm reduction ([1]; dosage 0.2 mg/l, R2-broth): 13.7%
- Biofilm quantity, Abs. at 595 nm ([1]; dosage 0.2 mg/l, SPW): 1.33
- Biofilm reduction ([1]; dosage 0.2 mg/l, SPW): 2.5%
- Biofilm quantity, Abs. at 595 nm ([1]; dosage 1 mg/l, R2-broth): 0.66
- Biofilm reduction ([1]; dosage 1 mg/l, R2-broth): 64.4%
- Biofilm quantity, Abs. at 595 nm ([1]; dosage 1 mg/l, SPW): 1.41
- Biofilm reduction ([1]; dosage 1 mg/l, SPW): −4.1%
- Biofilm quantity, Abs. at 595 nm ([1]; dosage 3 mg/l, R2-broth): 0.17
- Biofilm reduction ([1]; dosage 3 mg/l, R2-broth): 97.9%
- Biofilm quantity, Abs. at 595 nm ([1]; dosage 3 mg/l, SPW): 0.45
- Biofilm reduction ([1]; dosage 3 mg/l, SPW): 74.6%
- Biofilm quantity, Abs. at 595 nm ([1]; dosage 10 mg/l, R2-broth): 0.14
- Biofilm reduction ([1]; dosage 10 mg/l, R2-broth): 100.0%
- Biofilm quantity, Abs. at 595 nm ([1]; dosage 10 mg/l, SPW): 0.19
- Biofilm reduction ([1]; dosage 10 mg/l, SPW): 95.9%
- Biofilm quantity, Abs. at 595 nm ([4]; dosage 3 mg/l, R2-broth): 2.80
- Biofilm reduction ([4]; dosage 3 mg/l, R2-broth): −0.8%
- Biofilm quantity, Abs at 595 nm ([4]; dosage 3 mg/l, SPW): 2.25
- Biofilm reduction ([4]; dosage 3 mg/l, SPW): 5.4%
- Biofilm quantity, Abs. at 595 nm ([4]; dosage 10 mg/l, R2-broth): 2.55
- Biofilm reduction ([4]; dosage 10 mg/l, R2-broth): 8.7%
- Biofilm quantity, Abs at 595 nm ([4]; dosage 10 mg/l, SPW): 2.41
- Biofilm reduction ([4]; dosage 10 mg/l, SPW): −1.8%
- Biofilm quantity, Abs. at 595 nm ([4]; dosage 25 mg/l, R2-broth): 0.19
- Biofilm reduction ([4]; dosage 25 mg/l, R2-broth): 98.1%
- Biofilm quantity, Abs at 595 nm ([4]; dosage 25 mg/l, SPW): 2.42
- Biofilm reduction ([4]; dosage 25 mg/l, SPW): −2.2%
